US20240316017A1, “NOVEL PYRIDINE DERIVATIVE COMPOUND AS RON INHIBITOR” (LG CHEM, LTD., priority 2021, published 2024)

Columns and labels:
[1] = biological target: cMET (Homo sapiens, UniProt P08581); assay: Evaluation of inhibitory activity against MET (TR-FRET kinase assay); type: biochemical; conditions: cMET protein, TK peptide substrate
Experimental: In addition, in order to measure the enzyme activity inhibition for cMET, the evaluation was performed in the same manner as the enzyme activity inhibition measurement experiment for RON.
(§1) Specifically, the compound was prepared to a concentration of 1 mM in 100% DMSO and was diluted 10 times in a stepwise manner through 3-fold dilution. The compound (2 ul) diluted in a stepwise manner was added to a 96-well-plate containing 48 ul of a 1× kinase reaction buffer (50 mM HEPES (pH 7.4), 0.05% BSA, 0.005% Tween-20, 1 mM DTT, 0.5 mM MnCl2, 20 mM MgCl2).
The cMET protein was diluted to a concentration of 263 nM in a cMET storage buffer (50 mM Tris-HCl (pH 7.5), 150 mM NaCl, 0.05% Brij35, 1 mM DTT, 10% Glycerol), and then diluted again to a concentration of 2 nM in a 1× kinase reaction buffer. As a substrate cocktail, a MET-specific substrate mixed solution (5 uM TK peptide, 10 mM ATP) was prepared at a concentration 2 times the final reaction concentration.
(§2) Thereafter, a 384-well-plate was prepared, and 2.5 μl of each of the diluted compounds of Examples was added to a corresponding well of experimental group wells, and 2.5 μl of a 4% DMSO solution was dispensed into high control wells and low control wells.
(§3) Thereafter, 2.5 μL of 2 nM cMET was dispensed into each of the high control wells and the experimental group wells, and 2.5 μL of the 1×kinase reaction buffer was added to the low control wells, and all the wells were centrifuged at room temperature for 40 seconds at 1,000 RPM, and then incubated at room temperature for 20-30 minutes. Then, 5 uL of the substrate cocktail (2×) was dispensed into each well, and all the wells were centrifuged at room temperature for 40 seconds at 1,000 RPM, and then incubated at room temperature for 60 minutes. Thereafter, 5 uL of 90 mM EDTA was added to each well to terminate the reaction, and all the wells were then incubated again at room temperature for 5 minutes. Thereafter, 5 uL of a 4× phosphotyrosine antibody (Perkin Elmer) containing europium was added to each well, and all the wells were then incubated at room temperature for 60 minutes. After the incubation, the 384-well-plate was read with the Vison plate reader. In this case, the excitation wavelength was 340 nm, and the emission wavelength was 620 nm and 665 nm. The IC50 value of each compound of Examples was derived using the GraphPd Prism7 program.

[2] = biological target: RON (Homo sapiens, UniProt Q04912); assay: Evaluation of inhibitory activity against RON (TR-FRET kinase assay); type: biochemical; conditions: RON protein, ULight-labeled Poly GT substrate
Sequence of RON (Q04912 25-1400, species assumed): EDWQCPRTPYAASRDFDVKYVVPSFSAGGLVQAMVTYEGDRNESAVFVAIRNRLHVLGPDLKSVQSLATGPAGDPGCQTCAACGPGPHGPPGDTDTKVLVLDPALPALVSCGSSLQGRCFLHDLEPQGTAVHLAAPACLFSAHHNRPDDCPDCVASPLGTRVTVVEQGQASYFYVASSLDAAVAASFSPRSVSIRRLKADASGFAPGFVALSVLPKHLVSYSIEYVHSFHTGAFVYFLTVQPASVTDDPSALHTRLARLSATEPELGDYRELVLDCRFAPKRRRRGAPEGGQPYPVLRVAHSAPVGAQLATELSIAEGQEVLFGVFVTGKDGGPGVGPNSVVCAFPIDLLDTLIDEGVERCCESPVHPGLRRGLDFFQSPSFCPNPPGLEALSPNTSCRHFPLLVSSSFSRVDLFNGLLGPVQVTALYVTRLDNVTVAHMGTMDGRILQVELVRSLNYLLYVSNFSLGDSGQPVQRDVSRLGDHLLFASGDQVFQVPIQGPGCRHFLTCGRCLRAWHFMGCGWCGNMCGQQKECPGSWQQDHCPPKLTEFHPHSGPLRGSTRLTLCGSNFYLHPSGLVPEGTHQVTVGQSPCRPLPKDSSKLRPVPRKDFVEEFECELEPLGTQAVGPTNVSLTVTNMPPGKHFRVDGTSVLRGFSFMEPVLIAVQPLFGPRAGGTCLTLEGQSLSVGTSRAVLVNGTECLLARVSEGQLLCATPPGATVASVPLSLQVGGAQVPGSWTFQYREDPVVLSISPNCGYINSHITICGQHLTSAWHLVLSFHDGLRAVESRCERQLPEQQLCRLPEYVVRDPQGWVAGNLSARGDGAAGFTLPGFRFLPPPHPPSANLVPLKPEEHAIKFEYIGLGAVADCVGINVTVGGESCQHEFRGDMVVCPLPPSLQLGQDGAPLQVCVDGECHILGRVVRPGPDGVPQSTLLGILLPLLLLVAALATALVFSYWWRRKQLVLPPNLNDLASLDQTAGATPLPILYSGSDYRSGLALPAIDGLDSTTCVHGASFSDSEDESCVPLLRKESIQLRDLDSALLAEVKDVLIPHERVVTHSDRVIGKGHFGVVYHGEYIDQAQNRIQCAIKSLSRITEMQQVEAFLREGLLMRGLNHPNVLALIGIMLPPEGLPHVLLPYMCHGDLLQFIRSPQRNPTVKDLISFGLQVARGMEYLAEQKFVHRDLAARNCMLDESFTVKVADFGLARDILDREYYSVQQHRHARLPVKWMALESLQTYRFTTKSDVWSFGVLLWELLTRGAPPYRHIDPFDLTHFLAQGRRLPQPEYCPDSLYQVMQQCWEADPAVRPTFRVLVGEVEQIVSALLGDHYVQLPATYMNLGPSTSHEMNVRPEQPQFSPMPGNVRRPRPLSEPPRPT
Experimental: In order to measure the inhibitory activity of each of the compounds of Examples against RON, the IC50 of each of the compounds was measured using Time-resolved fluorescence energy transfer (TR-FRET).
as §1, with “7.4), 0.01%” for “7.4), 0.05% BSA, 0.005%”, “Tween-20, 5” for “Tween-20, 1”, “mM Na3VO4, 2 mM EGTA, 10” for “mM MnCl2, 20”
The RON protein was diluted to a concentration of 49.3 nM in a RON storage buffer (50 mM Tris-HCl (pH 7.5), 150 mM NaCl, 0.5 mM EDTA, 0.02% Triton X-100), and then diluted again to a concentration of 0.4 nM in a 1×kinase reaction buffer. As a substrate cocktail, a RON-specific substrate mixed solution (40 uM ULight-labeled Poly GT, 100 nM ATP) was prepared at a concentration 2 times the final reaction concentration.
as §2
as §3, with “of 0.4” for “of 2”, “nM RON” for “nM cMET”, “the 1× kinase” for “the 1×kinase”, “of 30” for “of 90”

Sequence of cMET (P08581 25-1390): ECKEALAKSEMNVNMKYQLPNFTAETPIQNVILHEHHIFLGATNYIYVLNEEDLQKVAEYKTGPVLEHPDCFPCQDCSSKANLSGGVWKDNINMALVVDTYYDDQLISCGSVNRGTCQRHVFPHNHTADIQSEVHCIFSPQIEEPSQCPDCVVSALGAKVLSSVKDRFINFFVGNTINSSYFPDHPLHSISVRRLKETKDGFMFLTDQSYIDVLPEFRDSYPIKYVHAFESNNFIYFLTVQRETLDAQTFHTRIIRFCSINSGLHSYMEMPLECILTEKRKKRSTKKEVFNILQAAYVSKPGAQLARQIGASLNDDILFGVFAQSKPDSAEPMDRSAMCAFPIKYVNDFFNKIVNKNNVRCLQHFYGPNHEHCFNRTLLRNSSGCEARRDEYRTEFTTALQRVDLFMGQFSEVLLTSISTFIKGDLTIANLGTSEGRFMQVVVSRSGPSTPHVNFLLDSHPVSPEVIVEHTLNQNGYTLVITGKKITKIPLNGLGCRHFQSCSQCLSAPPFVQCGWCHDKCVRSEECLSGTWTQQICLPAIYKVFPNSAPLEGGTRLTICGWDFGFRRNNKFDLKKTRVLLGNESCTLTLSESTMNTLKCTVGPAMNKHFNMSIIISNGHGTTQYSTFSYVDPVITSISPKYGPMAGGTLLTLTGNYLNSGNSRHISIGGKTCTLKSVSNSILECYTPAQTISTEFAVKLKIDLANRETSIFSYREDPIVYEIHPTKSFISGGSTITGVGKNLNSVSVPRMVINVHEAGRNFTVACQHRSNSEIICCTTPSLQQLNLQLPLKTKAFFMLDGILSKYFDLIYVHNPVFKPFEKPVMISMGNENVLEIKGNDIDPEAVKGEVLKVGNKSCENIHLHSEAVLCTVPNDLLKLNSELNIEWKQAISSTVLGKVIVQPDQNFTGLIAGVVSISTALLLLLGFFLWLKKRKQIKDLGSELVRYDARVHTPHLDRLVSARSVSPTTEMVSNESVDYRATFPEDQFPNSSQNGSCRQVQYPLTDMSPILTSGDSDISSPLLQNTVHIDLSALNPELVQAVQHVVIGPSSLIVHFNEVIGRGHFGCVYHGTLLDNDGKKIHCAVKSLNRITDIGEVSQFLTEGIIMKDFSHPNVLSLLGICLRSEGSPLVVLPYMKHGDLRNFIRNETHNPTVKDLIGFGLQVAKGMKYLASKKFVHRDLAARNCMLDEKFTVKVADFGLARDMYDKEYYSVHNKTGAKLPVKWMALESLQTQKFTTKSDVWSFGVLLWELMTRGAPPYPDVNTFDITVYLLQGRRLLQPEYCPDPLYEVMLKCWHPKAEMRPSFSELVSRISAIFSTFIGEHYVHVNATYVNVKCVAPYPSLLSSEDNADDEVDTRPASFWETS

SMILES | IC50 [1] [nM] | IC50 [2] [nM]
CCOC(=O)N(c1c(Oc2ccc(NC(=O)c3cnn(-c4ccccc4)c3CC)cc2F)ccnc1N)C(C)C [Example 35, Ethyl(2-amino-4-(4-(5-ethyl-1-phenyl-1H-pyrazole-4-carboxamido)-2-fluorophenoxy)pyridin-3-yl)(isopropyl)carbamate] | > 5000 | 500 to 5000
Cc1c(C(=O)Nc2ccc(Oc3ccnc(N)c3Cl)c(F)c2)nnn1-c1ccccc1 [Example 41, N-(4-((2-amino-3-chloropyridin-4-yl)oxy)-3-fluorophenyl)-5-methyl-1-phenyl-1H-1,2,3-triazole-4-carboxamide] | > 5000 | 50 to 500
Nc1nccc(Oc2ccc(NC(=O)c3cnn(-c4ccccc4)c3C(F)(F)F)cc2F)c1Cl [Example 2, N-(4-((2-amino-3-chloropyridin-4-yl)oxy)-3-fluorophenyl)-1-phenyl-5-(trifluoromethyl)-1H-pyrazole-4-carboxamide] | 500 to 5000 | < 50
Nc1nccc(Oc2ccc(NC(=O)c3ccc(-c4ccccc4)s3)cc2F)c1Cl [Example 33, N-(4-((2-amino-3-chloropyridin-4-yl)oxy)-3-fluorophenyl)-5-phenylthiophene-2-carboxamide] | > 5000 | 50 to 500
Nc1cc(Oc2ccc(NC(=O)c3ncn(-c4ccccc4)c3C(F)(F)F)cc2F)ccn1 [Example 25] | > 5000 | 50 to 500
CCOC(=O)Nc1c(Oc2ccc(NC(=O)c3cnn(-c4ccccc4)c3C(F)(F)F)cc2F)ccnc1N [Example 34, Ethyl(2-amino-4-(2-fluoro-4-(1-phenyl-5-(trifluoromethyl)-1H-pyrazole-4-carboxamido)phenoxy)pyridin-3-yl)carbamate] | > 5000 | 50 to 500
Nc1ncnc(Oc2ccc(NC(=O)c3cnn(C4CCCCC4)c3C(F)(F)F)cc2F)c1Cl [Example 51] | > 5000 | 50 to 500
C=CC(=O)N(C(=O)C=C)c1nccc(Oc2ccc(NC(=O)c3ncn(-c4ccccc4)c3C(F)(F)F)cc2F)c1Cl [Example 22] | > 5000 | 50 to 500
Nc1ncnc(Oc2ccc(NC(=O)c3ncn(-c4ccccc4)c3C(F)(F)F)cc2F)c1Cl [Example 63, N-[4-(6-amino-5-chloro-pyrimidin-4-yl)oxy-3-fluorophenyl]-1-phenyl-5-(trifluoromethyl)imidazole-4-carboxamide] | > 5000 | 50 to 500
Cc1c(C(=O)Nc2ccc(Oc3ccnc(N)c3Cl)c(F)c2)nnn1-c1ccccc1F [Example 42, N-(4-((2-amino-3-chloropyridin-4-yl)oxy)-3-fluorophenyl)-1-(2-fluorophenyl)-5-methyl-1H-1,2,3-triazole-4-carboxamide] | 500 to 5000 | 50 to 500
Nc1nccc(Oc2ccc(NC(=O)c3cnn(-c4ccccc4)c3N)cc2F)c1Cl [Example 10, 5-amino-N-(4-((2-amino-3-chloropyridin-4-yl)oxy)-3-fluorophenyl)-1-phenyl-1H-pyrazole-4-carboxamide] | > 5000 | 500 to 5000
Nc1nccc(Oc2ccc(NC(=O)c3cnn(-c4ccccc4F)c3C(F)(F)F)cc2F)c1Cl [Example 12, N-(4-((2-amino-3-chloropyridin-4-yl)oxy)-3-fluorophenyl)-1-(2-fluorophenyl)-5-(trifluoromethyl)-1H-pyrazole-4-carboxamide] | 500 to 5000 | 50 to 500
Nc1nccc(Oc2ccc(NC(=O)c3cnn(-c4ccccc4)c3Cl)cc2F)c1Cl [Example 18, N-(4-((2-amino-3-chloropyridin-4-yl)oxy)-3-fluorophenyl)-5-chloro-1-phenyl-1H-pyrazole-4-carboxamide] | 500 to 5000 | 50 to 500
Cc1ccc(-n2ncc(C(=O)Nc3ccc(Oc4ncnc(N)c4Cl)c(F)c3)c2C(F)(F)F)cc1 [Example 49] | > 5000 | > 5000
CC(C)(C)n1ncc(C(=O)Nc2ccc(Oc3ncnc(N)c3Cl)c(F)c2)c1C(F)(F)F [Example 58, N-[4-(6-amino-5-chloro-pyrimidin-4-yl)oxy-3-fluorophenyl]-1-tert-butyl-5-(trifluoromethyl)pyrazole-4-carboxamide] | > 5000 | 500 to 5000
Nc1nccc(Oc2ccc(NC(=O)c3cnn(-c4c(F)cccc4F)c3C(F)(F)F)cc2F)c1Cl [Example 37, N-(4-((2-amino-3-chloropyridin-4-yl)oxy)-3-fluorophenyl)-1-(2,6-difluorophenyl)-5-(trifluoromethyl)-1H-pyrazole-4-carboxamide] | 500 to 5000 | < 50
Nc1ncnc(Oc2ccc(NC(=O)c3cnn(-c4ccccc4)c3-c3ccccc3)cc2F)c1Cl [Example 59, N-[4-(6-amino-5-chloro-pyrimidin-4-yl)oxy-3-fluorophenyl]-1,5-diphenyl-pyrazole-4-carboxamide] | 500 to 5000 | 50 to 500
Nc1nccc(Oc2ccc(NC(=O)c3cnn(-c4ccccc4)c3C(F)(F)F)cc2F)c1I [Example 43, N-(4-((2-amino-3-iodopyridin-4-yl)oxy)-3-fluorophenyl)-1-phenyl-5-(trifluoromethyl)-1H-pyrazole-4-carboxamide] | > 5000 | < 50
Cn1ncc(C(=O)Nc2ccc(Oc3ccnc(N)c3Cl)c(F)c2)c1C(F)F [Example 9, N-(4-((2-amino-3-chloropyridin-4-yl)oxy)-3-fluorophenyl)-5-(difluoromethyl)-1-methyl-1H-pyrazole-4-carboxamide] | > 5000 | 500 to 5000
Nc1nccc(Oc2ccc(NC(=O)c3ncn(-c4ccccc4)c3C(F)(F)F)cc2F)c1Cl [Example 1, N-(4-((2-amino-3-chloropyridin-4-yl)oxy)-3-fluorophenyl)-1-phenyl-5-(trifluoromethyl)-1H-imidazole-4-carboxamide] | 500 to 5000 | < 50
Cc1c(C(=O)Nc2ccc(Oc3ncnc(N)c3Cl)c(F)c2)nnn1-c1ccccc1F [Example 56, N-[4-(6-amino-5-chloro-pyrimidin-4-yl)oxy-3-fluorophenyl]-1-(2-fluorophenyl)-5-methyl-triazole-4-carboxamide] | > 5000 | 50 to 500
CC(C)(C)n1ncc(C(=O)Nc2ccc(Oc3ccnc(N)c3Cl)c(F)c2)c1C(F)(F)F [Example 17, N-(4-((2-amino-3-chloropyridin-4-yl)oxy)-3-fluorophenyl)-1-(tert-butyl)-5-(trifluoromethyl)-1H-pyrazole-4-carboxamide] | 500 to 5000 | 50 to 500
Nc1nccc(Oc2ccc(NC(=O)c3ccn(-c4ccccc4)n3)cc2F)c1Cl [Example 39, N-(4-((2-amino-3-chloropyridin-4-yl)oxy)-3-fluorophenyl)-1-phenyl-1H-pyrazole-3-carboxamide] | 500 to 5000 | 500 to 5000
Cc1c(C(=O)Nc2ccc(Oc3ncnc(N)c3Cl)c(F)c2)nnn1-c1ccccc1 [Example 55, N-[4-(6-amino-5-chloro-pyrimidin-4-yl)oxy-3-fluorophenyl]-5-methyl-1-phenyl-triazole-4-carboxamide] | > 5000 | > 5000
